Patent publication US20240083888A1, “SMALL MOLECULE INHIBITOR FOR CATHEPSIN C AND MEDICINAL USE THEREOF” (REISTONE BIOPHARMA COMPANY LIMITED, priority 2020, published 2024)
Where a name gives a salt, the structure may show the parent alone.

Each molecule was assayed against rhCatC (Homo sapiens (Human), UniProt P53634) (assay: In vitro enzyme activity experiment of rhCatC (AMC fluorescence assay)). Conditions: not given.
Format: biochemical
Experimental: The in vitro inhibitory effect of compounds and positive control on rhCatC enzyme activity was evaluated by AMC fluorescence assay. rhCatC can catalyze the reaction of substrate peptide H-Gly-Arg-AMC, and release AMC to generate fluorescence. […] The compound was diluted with DMSO to a 384-well echo plate at a concentration of 100× of the highest concentration at the beginning of the experiment. 0.2 μL of the diluted compound was pipetted to a black-bottomed 384-well reaction plate for later use. The negative control well was DMSO. • 2) Activation of rhCatC: RhCatC and rhCatL were added to the activation buffer to obtain a final concentration of rhCatC of 100 μg/mL and a final concentration of rhCatL of 20 μg/mL, and incubated at room temperature for 1 hour. • 3) Enzyme activity reaction: Activated rhCatC was diluted to 0.4 μg/mL with the reaction buffer. The solution was added to the black-bottom 384-well reaction plate ([…]). 10 μL of the buffer was added for the vehicle control group. The plate containing compounds in its wells was incubated at room temperature for 30 minutes.
The RLU data was read, the inhibition rate was calculated, and the IC50 value was calculated according to the fitting curve of concentration and inhibition rate.

Chain of rhCatC (P53634 25-134): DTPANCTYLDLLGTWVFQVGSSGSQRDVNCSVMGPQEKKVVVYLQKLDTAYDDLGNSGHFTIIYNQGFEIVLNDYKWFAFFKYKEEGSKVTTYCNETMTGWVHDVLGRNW
Chain of rhCatC (P53634 231-394): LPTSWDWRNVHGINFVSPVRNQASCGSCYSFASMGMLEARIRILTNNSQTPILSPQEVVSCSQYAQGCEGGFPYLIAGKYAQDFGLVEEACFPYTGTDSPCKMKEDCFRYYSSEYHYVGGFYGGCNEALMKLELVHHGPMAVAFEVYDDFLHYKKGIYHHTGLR
Chain of rhCatC (P53634 395-463): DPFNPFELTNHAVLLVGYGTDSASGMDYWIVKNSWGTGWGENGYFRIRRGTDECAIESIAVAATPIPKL

Compound	IC50 [nM]
N#Cc1cc2c(cn1)-c1cc(F)c(C[C@@H](C#N)NC(=O)[C@@H]3CNCCCO3)cc1OC2 [Compound 19, (S)—N—((S)-1-Cyano-2-(3-cyano-9-fluoro-5H-chromeno[4,3-c]pyridin-8-yl)ethyl)-1,4-oxazepane-2-carboxamide]	32
CS(=O)(=O)c1ccc2c(c1)-c1cc(F)c(CC(C#N)NC(=O)[C@@H]3CNCCCO3)cc1OC2 (stereo partly drawn) [Compound 43, (2S)—N-(1-Cyano-2-(2-fluoro-9-(methylsulfonyl)-6H-benzo[c]chromen-3-yl)ethyl)-1,4-oxazepane-2-carboxamide]	26

Same assay, conditions: rhCatC enzyme, substrate H-Gly-Arg-AMC; read-out: Biological activity IC50

Compound	IC50 [nM]
N#C[C@H](Cc1ccc2c(c1)CN(c1ccccc1)C2=O)NC(=O)C1(N)CCOCC1 [Compound 1, (S)-4-Amino-N-(1-cyano-2-(1-oxo-2-phenylisoindolin-5-yl)ethyl)tetrahydro-2H-pyran-4-carboxamide]	42
N#C[C@H](Cc1ccc2c(c1)CN(c1ccccc1)C2=O)NC(=O)[C@@H]1CNCCCO1 [Compound 2, (S)—N—((S)-1-Cyano-2-(1-oxo-2-phenylisoindolin-5-yl)ethyl)-1,4-oxazepane-2-carboxamide]	710
N#CC(Cc1ccc2c(c1)CCCC2)NC(=O)[C@@H]1CNCCCO1 (stereo partly drawn) [Compound 3, (2S)—N-(1-Cyano-2-(5,6,7,8-tetrahydronaphthalen-2-yl)ethyl)-1,4-oxazepane-2-carboxamide trifluoroacetate]	4250
N#CC(Cc1ccc2c(c1)CCCC2)NC(=O)C1(N)CCOCC1 (centres unmarked) [Compound 4, 4-Amino-N-(1-cyano-2-(5,6,7,8-tetrahydronaphthalen-2-yl)ethyl)tetrahydro-2H-pyran-4-carboxamide]	54
N#CC(Cc1ccc2c(c1)CCC2)NC(=O)[C@@H]1CNCCCO1 (stereo partly drawn) [Compound 5, (2S)—N-(1-Cyano-2-(2,3-dihydro-1H-inden-5-yl)ethyl)-1,4-oxazepane-2-carboxamide trifluoroacetate]	3590
N#CC(Cc1ccc2c(c1)CCC2)NC(=O)C1(N)CCOCC1 (centres unmarked) [Compound 6, 4-Amino-N-(1-cyano-2-(2,3-dihydro-1H-inden-5-yl)ethyl)tetrahydro-2H-pyran-4-carboxamide]	56
CN1CCc2cc(C[C@@H](C#N)NC(=O)[C@@H]3CNCCCO3)ccc2C1 [Compound 9, (S)—N—((S)-1-Cyano-2-(2-methyl-1,2,3,4-tetrahydroisoquinolin-6-yl)ethyl)-1,4-oxazepane-2-carboxamide]	1740
N#C[C@H](Cc1ccc2c(c1)OCCC2)NC(=O)C1(N)CCOCC1 [Compound 10, (S)-4-Amino-N-(2-(chroman-7-yl)-1-cyanoethyl)tetrahydro-2H-pyran-4-carboxamide]	74
N#CC(Cc1ccc2c(c1)OCc1cc(F)ccc1-2)NC(=O)[C@@H]1CNCCCO1 (stereo partly drawn) [Compound 11, (2S)—N-(1-Cyano-2-(8-fluoro-6H-benzo[c]chromen-3-yl)ethyl)-1,4-oxazepane-2-carboxamide formate]	74
N#CC(Cc1ccc2c(c1)COc1cc(F)ccc1-2)NC(=O)[C@@H]1CNCCCO1 (stereo partly drawn) [Compound 15, (2S)—N-(1-Cyano-2-(3-fluoro-6H-benzo[c]chromen-8-yl)ethyl)-1,4-oxazepane-2-carboxamide]	304
CC1(C)Oc2cc(C[C@@H](C#N)NC(=O)[C@@H]3CNCCCO3)c(F)cc2-c2ccc(C#N)cc21 [Compound 27, (S)—N—((S)-1-Cyano-2-(8-cyano-2-fluoro-6,6-dimethyl-6H-benzo[c]chromen-3-yl)ethyl)-1,4-oxazepane-2-carboxamide]	23
N#Cc1cnc2c(c1)COc1cc(CC(C#N)NC(=O)[C@@H]3CNCCCO3)c(F)cc1-2 (stereo partly drawn) [Compound 33, (2S)—N-(1-Cyano-2-(3-cyano-9-fluoro-5H-chromeno[4,3-b]pyridin-8-yl)ethyl)-1,4-oxazepane-2-carboxamide]	85
N#CC(Cc1ccc2c(c1)OCc1ccc(C3CCNC3)cc1-2)NC(=O)C1(N)CCOCC1 (centres unmarked) [Compound 34, 4-Amino-N-(1-cyano-2-(9-(pyrrolidin-3-yl)-6H-benzo[c]chromen-3-yl)ethyl)tetrahydro-2H-pyran-4-carboxamide]	6.2
N#C[C@H](Cc1cc2c(cc1F)-c1cc(C3COC3)c(F)cc1CO2)NC(=O)[C@@H]1CNCCCO1 [Compound 38A, (S)—N—((S)-1-Cyano-2-(2,8-difluoro-9-(oxetan-3-yl)-6H-benzo[c]chromen-3-yl)ethyl)-1,4-oxazepane-2-carboxamide]	1.3
N#C[C@@H](Cc1cc2c(cc1F)-c1cc(C3COC3)c(F)cc1CO2)NC(=O)[C@@H]1CNCCCO1 [Compound 38B, (S)—N—((R)-1-Cyano-2-(2,8-difluoro-9-(oxetan-3-yl)-6H-benzo[c]chromen-3-yl)ethyl)-1,4-oxazepane-2-carboxamide]	76
N#CC(Cc1ccc2c(c1)CCOc1cc(F)ccc1-2)NC(=O)C1(N)CCOCC1 (centres unmarked) [Compound 39, 4-Amino-N-(1-cyano-2-(3-fluoro-6,7-dihydrodibenzo[b,d]oxepin-9-yl)ethyl)tetrahydro-2H-pyran-4-carboxamide]	46
N#C[C@H](Cc1ccc2c(c1)oc1cc(F)ccc12)NC(=O)C1(N)CCOCC1 [Compound 42, (S)-4-Amino-N-(1-cyano-2-(7-fluorodibenzo[b,d]furan-3-yl)ethyl)tetrahydro-2H-pyran-4-carboxamide]	5.7
N#C[C@H](Cc1ccc2c(c1)OCCN(c1ccc(F)cc1)C2=O)NC(=O)C1(N)CCOCC1 [Compound 44, (S)-4-Amino-N-(1-cyano-2-(4-(4-fluorophenyl)-5-oxo-2,3,4,5-tetrahydrobenzo[f][1,4]oxazepin-8-yl)ethyl)tetrahydro-2H-pyran-4-carboxamide]	39
N#Cc1ccc(N2Cc3cc(C[C@@H](C#N)NC(=O)C4(N)CCOCC4)ccc3C2=O)cc1 [Compound 45, (S)-4-Amino-N-(1-cyano-2-(2-(4-cyanophenyl)-1-oxoisoindolin-5-yl)ethyl)tetrahydro-2H-pyran-4-carboxamide]	72
N#Cc1ccc(C(=O)N2Cc3ccc(C[C@@H](C#N)NC(=O)C4(N)CCOCC4)cc3C2)cc1 [Compound 46, (S)-4-Amino-N-(1-cyano-2-(2-(4-cyanobenzoyl)isoindolin-5-yl)ethyl)tetrahydro-2H-pyran-4-carboxamide]	54
N#Cc1cccc(N2Cc3cc(C[C@@H](C#N)NC(=O)C4(N)CCOCC4)ccc3C2=O)c1 [Compound 47, (S)-4-Amino-N-(1-cyano-2-(2-(3-cyanophenyl)-1-oxoisoindolin-5-yl)ethyl)tetrahydro-2H-pyran-4-carboxamide formate]	29
Cn1c(=O)oc2ccc(N3Cc4cc(C[C@@H](C#N)NC(=O)C5(N)CCOCC5)ccc4C3=O)cc21 [Compound 48, (S)-4-Amino-N-(1-cyano-2-(2-(3-methyl-2-oxo-2,3-dihydrobenzo[d]oxazol-5-yl)-1-oxoisoindolin-5-yl)ethyl)tetrahydro-2H-pyran-4-carboxamide]	29
N#C[C@H](Cc1ccc2c(c1)CCN(c1ccccc1)C2=O)NC(=O)C1(N)CCOCC1 [Compound 49, (S)-4-Amino-N-(1-cyano-2-(1-oxo-2-phenyl-1,2,3,4-tetrahydroisoquinolin-6-yl)ethyl)tetrahydro-2H-pyran-4-carboxamide]	57
N#C[C@H](Cc1ccc2c(c1)C(=O)N(c1ccccc1)C2)NC(=O)C1(N)CCOCC1 [Compound 50, (S)-4-Amino-N-(1-cyano-2-(3-oxo-2-phenylisoindolin-5-yl)ethyl)tetrahydro-2H-pyran-4-carboxamide]	19
